Assay results published in patent US11590199B2, “Use of an ABC transporter peptide inhibitor” (HUNAN UNIVERSITY OF SCIENCE AND ENGINEERING, priority 2021, dated 2023).

Legend:
[1] = test system: HEK293/pcDNA3.1 parental cell line; assay: MDR reversal study (MTT), parental HEK293/pcDNA3.1; assay type: cell-based; details: for IC50 / RF: chemotherapeutic drug alone
[2] = test system: drug-induced ABCB1-overexpressing cancer cell line KB-C2; assay: MDR reversal study (MTT), drug-induced ABCB1-overexpressing cells; details: chemotherapeutic drug alone
[3] = test system: transfected ABCC1-overexpressing cell line HEK293/ABCC1; assay: MDR reversal study (MTT), transfected ABCC1-overexpressing cells; assay type: cell-based; details: chemotherapeutic drug alone
[4] = test system: drug-induced ABCC1-overexpressing cancer cell line KB-CV60; assay: MDR reversal study (MTT), drug-induced ABCC1-overexpressing cells; assay type: cell-based; details: chemotherapeutic drug alone, Table 4
[5] = test system: KB-3-1 parental cell line; assay: MDR reversal study (MTT), parental KB-3-1; assay type: cell-based; details: chemotherapeutic drug alone
parental cells (KB-3-1) = assay: cells; details: Homo sapiens

SMILES	RF ([1]; Table 3)	RF ([1]; Table 5)	RF [3]	RF [4]	RF ([5]; Table 2)	RF ([5]; Table 4)	other results
CN(C)C(=O)CCSC(SCCC(=O)O)c1cccc(/C=C/c2ccc3ccc(Cl)cc3n2)c1 (stereo not shown) [MK571]							RF of cisplatin ([1]; cisplatin + MK571 (5 μM)): 0.99; RF of vincristine ([1]; vincristine + MK571 (5 μM)): 1.02
N.N.[Cl][Pt][Cl] [Cisplatin]	1.00	1.00	1.01	1.25	1.00	1.00	IC50 ([1]; Table 3): 2210 ± 541 nM; IC50 ([1]; Table 5): 2210 nM; RF [2]: ± 0.428 (1.13); IC50 [3]: 2240 nM; IC50 [4]: 2230 nM; IC50 ([5]; Table 2): 1790 ± 476 nM; IC50 ([5]; Table 4): 1790 nM
CC[C@]1(O)C[C@H]2CN(CCc3c([nH]c4ccccc34)[C@@](C(=O)OC)(c3cc4c(cc3OC)N(C=O)[C@H]3[C@@](O)(C(=O)OC)[C@H](OC(C)=O)[C@]5(CC)C=CCN6CC[C@]43[C@@H]65)C2)C1 [Vincristine]		1.00	19.79	169.05		1.00	IC50 ([1]; Homo sapiens, Table 5): 137 nM; IC50 ([5]; Homo sapiens, 72 h, Table 4): 95 nM; IC50 (parental cells (KB-3-1)): 95 nM
COc1cccc2c1C(=O)c1c(O)c3c(c(O)c1C2=O)C[C@@](O)(C(=O)CO)C[C@@H]3O[C@H]1C[C@H](N)[C@H](O)[C@H](C)O1 [Doxorubicin]					1.00		
CC(=O)O[C@H]1C(=O)[C@@]2(C)[C@H]([C@H](OC(=O)c3ccccc3)[C@]3(O)C[C@H](OC(=O)[C@H](O)[C@@H](NC(=O)c4ccccc4)c4ccccc4)C(C)=C1C3(C)C)[C@]1(OC(C)=O)CO[C@@H]1C[C@@H]2O [Paclitaxel]	1.00				1.00		
